Legend:
[1] = Diet-induced obese C57B6 mice, s.c. Peptide X-PEG / Y-PEG (Examples 45-49); assay type: in vivo
Experimental: C57BI/6 mice were obtained from Jackson Laboratories and fed a diabetogenic diet from Research Diets, a high sucrose diet with 58% kcal from fat. Mice were single or group-housed on a 12:12-h light-dark cycle at 22° C. with free access to food and water. All studies were approved by and performed according to the guidelines of the Institutional Animal Care and Use Committee of the University of Cincinnati.
Whole body composition (fat and lean mass) was measured using NMR technology (EchoMRI, Houston, Tex.).
Energy intake and expenditure, as well as home-cage activity, were assessed by using a combined indirect calorimetry system (TSE Systems, Bad Homburg, Germany). Oxygen consumption and CO2 production were measured every 45 min for a total of 120 h (including 12 h of adaptation) to determine the respiratory quotient and energy expenditure. Food and water intake and meal patterns were determined continuously for 120 h at the same time as the indirect calorimetry assessments by integration of scales into the sealed cage environment. Meals were defined as food intake events with a minimum duration of 60 s, and a break of 300 s between food intake events. Home-cage locomotor activity was determined using a multidimensional infrared light beam system with beams scanning the bottom and top levels of the cage, and activity being expressed as beam breaks. Stationary motor activity (fidgeting) was defined as consecutive breaks of one single light beam at cage-bottom level, ambulatory movement as breaks of any two different light beams at cage-bottom level, and rearing as simultaneous breaks of light beams on both cage-bottom and the top level.
Blood was collected after a 6-h fast from tail veins using EDTA-coated Microvette tubes (Sarstedt, Nuremberg, Germany) and immediately chilled on ice. After 15 min of centrifugation at 3,000 g and 4° C., plasma was stored at −80° C. Plasma insulin was quantified by a radioimmunoassay from Linco (Sensitive Rat Insulin RIA; Linco Research, St. Charles, Mo.). Plasma TGs and cholesterol levels were measured by enzymatic assay kits (Thermo Electron, Waltham, Mass.). Samples were analyzed individually with the exception that pooled samples (0.25 ml) from 5 animals/group were subjected to fast-performance liquid chromatography (FPLC) gel filtration on two Superose 6 columns connected in series for lipoprotein separation. All assays were performed according to the manufacturer's instructions.
For the determination of glucose tolerance, mice were subjected to 6 h of fasting and injected intraperitoneally (i.p.) with 2 g glucose/kg body wt (50% D-glucose (Sigma) in 0.9% saline) for the glucose tolerance test (GTT). Tail blood glucose levels (mg/dl) were measured by using a hand-held glucometer (TheraSense Freestyle) before (0 min) and at 15, 30, 60, 90, and 120 min after injection.
The 40-kd pegylated peptides Peptides X-PEG and Y-PEG were used as single weekly subcutaneous (s.c) injections in diet-induced obese (D10) C57B6 mice.
Long-term effects of these lower doses on food intake (p=0.95; FIG. 29C) were less impressive than short-term effects with a higher dose (FIG. 27C).

[2] = Body weight of DIO mice after i.p. injection (Example 26); assay type: in vivo; conditions: 15 or 70 nmol/kg i.p., 7 days
Experimental: DIO mice were injected intraperitoneally with vehicle only or 15 or 70 nmol/kg of one of the following:
Body weight was measured before injection and at 1, 3, 5, and 7 days post-injection.

[3] = Diet-induced obese rats, once-a-week injection, 3-week treatment; assay type: in vivo; conditions: 70 nmol/kg/week, 3 weeks
Experimental: To determine if the principal phenomenon generalizes across species, both compounds were administered to diet-induced obese rats (mean weight 777.4+/−2.1 g, dose 70 nmol/kg/week, once-a-week injection, 3-week treatment).

[4] = GLP-1 receptor knock out (GLP-1R−/−) mice on high-fat diet, one month; assay type: in vivo
[5] = system: hormone sensitive lipase (HSL); assay: Western blot of WAT HSL phosphorylation; assay type: in vivo, mice; conditions: one month treatment
Experimental: Adipose tissue was placed in a 1.5-ml microfuge tube and lysed in ice cold RIPA buffer (1×PBS, 1% Nonidet P40, 0.5% sodium doxycholate, 0.1% SDS with 50 mM NaF, […], 0.1 mM Na Vanadate, 20 μg/ml Aprotinin, 10 μg/ml Leupeptin) using a tissue lyser (Retsch, Inc Newtown, Pa. Cat. #85210) at 30 hz for 3 min. Samples were spun at 12,000 rpm for 15 min (4° C.) at which time the internatant was removed to a new tube and sonicated for 15 sec on ice. Samples were spun at 14,000 rpm for 10 min (4° C.) and the internatant was collected to a new tube. Samples were again spun at 19,000 rpm for 10 min (4° C.) and the internatant collected to a new tube. An aliquot of sample was then taken for protein assay. Samples were then boiled in 4×SDS/DTT buffer for 2 min. 50 μg of protein from cell lysate were subjected to SDS/PAGE on 9% (w/v) acrylamide resolving gels and transferred to Hybond ECL nictrocellulose membranes. […] After washing, primary antibody detection was performed using either HRP-conjugated anti-(rabbit IgG) or anti-(mouse IgG) (HRP-conjugated anti-rabbit and anti-mouse secondary antibodies were purchased from Bio-Rad (170-6515 & 170-6516)) and detected using enhanced chemiluminescence (Amersham Biosciences) and exposed to CL-Xposure film (Pierce).

[6] = system: Uncoupling protein I (UCP1); assay: UCP1 levels in brown adipose tissue; design: species or system mice; conditions: mouse, in vivo
[7] = 70 nmol/kg s.c. Days 0 and 7, Day 9

## H(Aib)QGTFTSDYSKYLDEQAAKEFICWLMNT-amide [Peptide X-PEG]
[1]; [7]
  leptin: 7308 ± 2927 pg/mL
  plasma triglycerides: no significant effect on triglycerides
[1]; Day 3
  blood glucose profile (AUC), i.p. glucose challenge: 13794±824.1
[1]; after one month of treatment
  Plasma C-peptide levels: 624.7 pg/mL
  plasma insulin: 1034 pg/mL
[1]; chronic s.c. treatment over 27 days
  total cholesterol: 106.9 mg/dL
[1]; single s.c. 0-350 nmol/kg
  dose response of body weight and blood glucose: linearly responsive, dose-dependent decreases in body weight and blood glucose
[1]; weekly s.c. 70 nmol/kg
  Energy expenditure: 17.19±1.49 kcal/[kg*h]
  change in fat mass: −52.2%
  respiratory quotient: 0.725±0.01
[1]; weekly s.c. 70 nmol/kg, from Day 3
  Blood glucose levels, mean decrease: −24.5%
[1]; weekly s.c. 70 nmol/kg, one month
  decrease in body weight: 20.1%
[2]
  ability to lower body weight: comparable ability to lower body weight
[3]
  change in body weight: −11.15+/−0.88%
  change in fat mass: −19.17+/−2.03%
[4]
  body weight: caused a reduction of body weight (p>0.05
  food intake: no effect on food intake
[5]
  phosphorylation of hormone sensitive lipase (HSL) in white adipose tissue: 1.135±0.315
[6]
  Uncoupling protein I (UCP1) levels in brown adipose tissue: 2.167±0.429
